Tests used:
Assay type in all cases: cell-based
[1] = test system: SU-DHL-1 cells; experiment: CellTiter-Glo 2.0 cell viability assay, SU-DHL-1; details: Homo sapiens, 96 h, 4 days
Procedure: For example, cell viability may be determined by CellTiter-Glo 2.0 Cell Viability Assay. In a typical procedure, cells seeded at certain amounts of cells (e.g., 1000 cells) per well are incubated with serially diluted compounds for certain period (e.g., 4 days) under certain conditions (e.g., at 37° C. with 5% CO2). At the end of treatment, CellTiter-Glo 2.0 is added to the wells and luminescence is acquired on TECAN SPARK plate reader. Untreated cells are used as control, Data points are fit with an equation (e.g., a four-parameter equation) to generate a concentration-response curve. IC50 values are calculated using a nonlinear regression analysis of the mean±SD from triplicate.
SU-DHL-1 and SUP-M2 cell viability was determined by CellTiter-Glo 2.0 Cell Viability Assay (Promega). SU-DHL-1 cell line was purchased from ATCC (Manassas, VA) and SUP-M2 (ACC-509) was purchased from DSMZ (Germany). RPMI 1640 medium and fetal bovine serum (FBS) were purchased from Gibco/Thermo Fisher Scientific. In a typical procedure, cells seeded at 1000 cells per well in 384-well white plates (Corning) were incubated with serially diluted compounds for 4 days at 37° C. with 5% C02. At the end of treatment, CellTiter-Glo 2.0 was added to the wells and luminescence was acquired on TECAN SPARK plate reader. Untreated cells were used as control. Data points were fit with a four-parameter equation to generate a concentration-response curve. IC50 values were calculated using a nonlinear regression analysis of the mean±SD from triplicate.

[2] = molecular target: T1, STAT3 (Homo sapiens, UniProt P40763); experiment: HiBiT assay, STAT3 degradation in STAT3-HiBiT KI HeLa cells; details: 24 h; for DC50: read-out: STAT3 Degradation (HeLa 24 h HiBit) DC50
T1 construct: This cell line is a clone created by using CRISPR-Cas9 to fuse HiBiT to the 3′ end of STAT3 in HeLa cells; host or cells: STAT3-HiBiT KI HeLa cell line (CRISPR-Cas9 knock-in clone)
T1 sequence (P40763 whole entry): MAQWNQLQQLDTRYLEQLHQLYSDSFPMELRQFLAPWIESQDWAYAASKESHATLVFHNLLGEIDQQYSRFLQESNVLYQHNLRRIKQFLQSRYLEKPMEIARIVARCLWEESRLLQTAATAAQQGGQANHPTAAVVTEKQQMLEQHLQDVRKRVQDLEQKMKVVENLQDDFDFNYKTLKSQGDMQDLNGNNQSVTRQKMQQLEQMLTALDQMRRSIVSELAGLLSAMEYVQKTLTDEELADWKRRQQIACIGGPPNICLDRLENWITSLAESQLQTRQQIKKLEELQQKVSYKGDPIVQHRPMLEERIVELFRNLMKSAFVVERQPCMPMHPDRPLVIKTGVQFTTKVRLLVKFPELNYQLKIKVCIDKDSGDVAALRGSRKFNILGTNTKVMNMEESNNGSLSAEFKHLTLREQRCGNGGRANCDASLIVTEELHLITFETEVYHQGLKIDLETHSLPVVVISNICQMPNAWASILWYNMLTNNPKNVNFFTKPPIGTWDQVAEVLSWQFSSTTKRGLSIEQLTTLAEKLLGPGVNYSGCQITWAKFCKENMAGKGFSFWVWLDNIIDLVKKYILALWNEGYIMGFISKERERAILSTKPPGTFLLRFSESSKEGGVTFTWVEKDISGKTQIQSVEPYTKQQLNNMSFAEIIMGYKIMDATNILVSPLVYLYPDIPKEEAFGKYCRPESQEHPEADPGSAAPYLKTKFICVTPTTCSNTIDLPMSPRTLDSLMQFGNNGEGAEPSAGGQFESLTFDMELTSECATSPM
Outline: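 Luminescence of endogenous HiBiT-tagged STAT3 (C-terminal knock-in, HeLa) was measured with lytic Nano-Glo detection after 24 h exposure to serially diluted compounds at 37 °C. Cells plated at 20000/well; untreated cells served as control, and triplicate means were fit by four-parameter regression to give IC50.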

[3] = test system: SUP-M2 cells; experiment: CellTiter-Glo 2.0 cell viability assay, SUP-M2; details: 4 days
Outline: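 IC50 derived by four-parameter nonlinear regression on triplicate luminescence data (CellTiter-Glo 2.0), normalised to untreated controls. Cells plated at 1000/well received serial compound dilutions for 4 days at 37 °C with 5% CO2.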

Row | Structure (SMILES) | IC50 [1] | Dmax at 1 µM [2] | DC50 [2] | IC50 [3] | IC50 ([3]; SUP-M2, 96 h)
1 | Cc1ncsc1-c1ccc([C@H](C)NC(=O)[C@@H]2C[C@@H](O)CN2C(=O)[C@@H](n2cc(CCCCC(=O)N3CC[C@H]4CC[C@@H](C(=O)N[C@@H](CCC(N)=O)C(=O)NC(c5ccccc5)c5ccccc5)N4C(=O)[C@@H](NC(=O)c4cc5cc(C(=O)P(=O)(O)O)ccc5[nH]4)C3)nn2)C(C)(C)C)cc1 [Compound 13, (2-(((5S,8S,10aR)-8-(((S)-5-amino-1-(benzhydrylamino)-1,5-dioxopentan-2-yl)carbamoyl)-3-(5-(1-((S)-1-((2S,4R)-4-hydroxy-2-(((S)-1-(4-(4-methylthiazol-5-yl)phenyl)ethyl)carbamoyl)pyrrolidin-1-yl)-3,3-dimethyl-1-oxobutan-2-yl)-1H-1,2,3-triazol-4-yl)pentanoyl)-6-oxodecahydropyrrolo[1,2-a][1,5]diazocin-5-yl)carbamoyl)-1H-indole-5-carbonyl)phosphonic acid] | 100 to 1000 nM | > 80% | 10 to 100 nM | 10 to 100 nM | 
2 | CCS(=O)(=O)c1ccc(CNC(=O)[C@H](CCC(N)=O)NC(=O)[C@@H]2CC[C@@H]3CCN(C(=O)CCCCCc4cn([C@H](C(=O)N5C[C@H](O)C[C@H]5C(=O)N[C@@H](C)c5ccc(-c6scnc6C)cc5)C(C)(C)C)nn4)C[C@H](NC(=O)c4cc5cc(C(=O)P(=O)(O)O)ccc5[nH]4)C(=O)N32)cc1 [Compound 14, (2-(((5S,8S,10aR)-8-(((S)-5-amino-1-((4-(ethylsulfonyl)benzyl)amino)-1,5-dioxopentan-2-yl)carbamoyl)-3-(6-(1-((S)-1-((2S,4R)-4-hydroxy-2-(((S)-1-(4-(4-methylthiazol-5-yl)phenyl)ethyl)carbamoyl)pyrrolidin-1-yl)-3,3-dimethyl-1-oxobutan-2-yl)-1H-1,2,3-triazol-4-yl)hexanoyl)-6-oxodecahydropyrrolo[1,2-a][1,5]diazocin-5-yl)carbamoyl)-1H-indole-5-carbonyl)phosphonic acid] | < 10 nM | > 80% | < 10 nM |  | < 10 nM
3 | CCS(=O)(=O)c1ccc(CNC(=O)[C@H](CCC(N)=O)NC(=O)[C@@H]2CC[C@@H]3CCN(C(=O)CCCCCCc4cn([C@H](C(=O)N5C[C@H](O)C[C@H]5C(=O)N[C@@H](C)c5ccc(-c6scnc6C)cc5)C(C)(C)C)nn4)C[C@H](NC(=O)c4cc5cc(C(=O)P(=O)(O)O)ccc5[nH]4)C(=O)N32)cc1 [Compound 15, (2-(((5S,8S,10aR)-8-(((S)-5-amino-1-((4-(ethylsulfonyl)benzyl)amino)-1,5-dioxopentan-2-yl)carbamoyl)-3-(7-(1-((S)-1-((2S,4R)-4-hydroxy-2-(((S)-1-(4-(4-methylthiazol-5-yl)phenyl)ethyl)carbamoyl)pyrrolidin-1-yl)-3,3-dimethyl-1-oxobutan-2-yl)-1H-1,2,3-triazol-4-yl)heptanoyl)-6-oxodecahydropyrrolo[1,2-a][1,5]diazocin-5-yl)carbamoyl)-1H-indole-5-carbonyl)phosphonic acid] | 10 to 100 nM | > 80% | < 10 nM |  | 10 to 100 nM
4 | CCS(=O)(=O)c1ccc(CNC(=O)[C@H](CCC(N)=O)NC(=O)[C@@H]2CC[C@@H]3CCN(C(=O)CCCCc4cn([C@H](C(=O)N5C[C@H](O)C[C@H]5C(=O)N[C@@H](CN5CCOCC5)c5ccc(-c6scnc6C)cc5)C(C)(C)C)nn4)C[C@H](NC(=O)c4cc5cc(C(=O)P(=O)(O)O)ccc5[nH]4)C(=O)N32)cc1 [Compound 16, (2-(((5S,8S,10aR)-8-(((S)-5-amino-1-((4-(ethylsulfonyl)benzyl)amino)-1,5-dioxopentan-2-yl)carbamoyl)-3-(5-(1-((S)-1-((2S,4R)-4-hydroxy-2-(((R)-1-(4-(4-methylthiazol-5-yl)phenyl)-2-morpho-linoethyl)carbamoyl)pyrrolidin-1-yl)-3,3-dimethyl-1-oxobutan-2-yl)-1H-1,2,3-triazol-4-yl)pentanoyl)-6-oxodecahydropyrrolo[1,2-a][1,5]diazocin-5-yl)carbamoyl)-1H-indole-5-carbonyl)phosphonic acid] | 100 to 1000 nM | > 80% | 10 to 100 nM |  | 100 to 1000 nM
5 | CCS(=O)(=O)c1ccc(CNC(=O)[C@H](CCC(N)=O)NC(=O)[C@@H]2CC[C@@H]3CCN(C(=O)CCCCc4cn([C@H](C(=O)N5C[C@H](O)C[C@H]5C(=O)N[C@@H](CCN5CCOCC5)c5ccc(-c6scnc6C)cc5)C(C)(C)C)nn4)C[C@H](NC(=O)c4cc5cc(C(=O)P(=O)(O)O)ccc5[nH]4)C(=O)N32)cc1 [Compound 17, (2-(((5S,8S,10aR)-8-(((S)-5-amino-1-((4-(ethylsulfonyl)benzyl)amino)-1,5-dioxopentan-2-yl)carbamoyl)-3-(5-(1-((S)-1-((2S,4R)-4-hydroxy-2-(((S)-1-(4-(4-methylthiazol-5-yl)phenyl)-3-morpholinopropyl)carbamoyl)pyrrolidin-1-yl)-3,3-dimethyl-1-oxobutan-2-yl)-1H-1,2,3-triazol-4-yl)pentanoyl)-6-oxodecahydropyrrolo[1,2-a][1,5]diazocin-5-yl)carbamoyl)-1H-indole-5-carbonyl)phosphonic acid] | 100 to 1000 nM | > 80% | 100 to 1000 nM |  | 100 to 1000 nM
6 | CCS(=O)(=O)c1ccc(CNC(=O)[C@H](CCC(N)=O)NC(=O)[C@@H]2CC[C@@H]3CCN(C(=O)[C@H]4CC[C@H](c5cn([C@H](C(=O)N6C[C@H](O)C[C@H]6C(=O)N[C@@H](C)c6ccc(-c7scnc7C)cc6)C(C)(C)C)nn5)CC4)C[C@H](NC(=O)c4cc5cc(C(=O)P(=O)(O)O)ccc5[nH]4)C(=O)N32)cc1 [Compound 18, (2-(((5S,8S,10aR)-8-(((S)-5-amino-1-((4-(ethylsulfonyl)benzyl)amino)-1,5-dioxopentan-2-yl)carbamoyl)-3-((1S,4S)-4-(1-((S)-1-((2S,4R)-4-hydroxy-2-(((S)-1-(4-(4-methylthiazol-5-yl)phenyl)ethyl)carbamoyl)pyrrolidin-1-yl)-3,3-dimethyl-1-oxobutan-2-yl)-1H-1,2,3-triazol-4-yl)cyclohexane-1-carbonyl)-6-oxodecahydropyrrolo[1,2-a][1,5]diazocin-5-yl)carbamoyl)-1H-indole-5-carbonyl)phosphonic acid] | 10 to 100 nM | > 80% | 10 to 100 nM |  | 100 to 1000 nM
7 | CC(=O)N1CC[C@H]2CC[C@@H](C(=O)N[C@@H](CCC(N)=O)COc3cccc(CCCc4cn([C@H](C(=O)N5C[C@H](O)C[C@H]5C(=O)N[C@@H](C)c5ccc(-c6scnc6C)cc5)C5CCCCC5)nn4)c3Cl)N2C(=O)[C@@H](NC(=O)c2cc3cc(C(=O)P(=O)(O)O)ccc3[nH]2)C1 [Compound 19, (2-(((5S,8S,10aR)-3-acetyl-8-(((S)-5-amino-1-(2-chloro-3-(3-(1-((S)-1-cyclohexyl-2-((2S,4R)-4-hydroxy-2-(((S)-1-(4-(4-methylthiazol-5-yl)phenyl)ethyl)carbamoyl)pyrrolidin-1-yl)-2-oxoethyl)-1H-1,2,3-triazol-4-yl)propyl)phenoxy)-5-oxopentan-2-yl)carbamoyl)-6-oxodecahydropyrrolo[1,2-a][1,5]diazocin-5-yl)carbamoyl)-1H-indole-5-carbonyl)phosphonic acid] | < 10 nM | > 80% | < 10 nM |  | < 10 nM
8 | CCS(=O)(=O)c1ccc(CNC(=O)[C@H](CCC(N)=O)NC(=O)[C@@H]2CC[C@@H]3CCN(C(=O)CCCCc4cn([C@@H](C(=O)N5C[C@H](O)C[C@H]5C(=O)N[C@H](C)c5ccc(-c6scnc6C)cc5)C5CCCCC5)nn4)C[C@H](NC(=O)c4cc5cc(C(=O)P(=O)(O)O)ccc5[nH]4)C(=O)N32)cc1 [Compound 20, (2-(((5S,8S,10aR)-8-(((S)-5-amino-1-((4-(ethylsulfonyl)benzyl)amino)-1,5-dioxopentan-2-yl)carbamoyl)-3-(5-(1-((R)-1-cyclohexyl-2-((2S,4R)-4-hydroxy-2-(((R)-1-(4-(4-methylthiazol-5-yl)phenyl)ethyl)carbamoyl)pyrrolidin-1-yl)-2-oxoethyl)-1H-1,2,3-triazol-4-yl)pentanoyl)-6-oxodecahydropyrrolo[1,2-a][1,5]diazocin-5-yl)carbamoyl)-1H-indole-5-carbonyl)phosphonic acid] | < 10 nM | > 80% | < 10 nM |  | < 10 nM
